Measurements published in ChEMBL document CHEMBL1143276, “Synthesis and antimicrobial activities of halogenated bis(hydroxyphenyl)methanes” (2009).
Converted amounts (≈) assume the structure as drawn.

Assays:
[1] = tested on: Bacillus subtilis; experiment: Antibacterial activity against Bacillus subtilis ATCC 6633 after 24 hrs; type: functional; conditions: ATCC 6633, 24 h
[2] = tested on: Trichophyton rubrum; experiment: Antifungal activity against Trichophyton rubrum IFO 9185 after 48 to 72 hrs; type: functional
[3] = tested on: Staphylococcus aureus; experiment: Antibacterial activity against Staphylococcus aureus ATCC 6538p after 24 hrs; type: functional
[4] = tested on: Aspergillus fumigatus; experiment: Antifungal activity against Aspergillus fumigatus HIC 6094 after 48 to 72 hrs; type: functional
[5] = tested on: Proteus vulgaris; experiment: Antibacterial activity against Proteus vulgaris ATCC 3851 after 24 hrs; type: functional; conditions: ATCC 3851, 24 h
[6] = tested on: Trichophyton mentagrophytes; experiment: Antifungal activity against Trichophyton mentagrophytes IFO 40996 after 48 to 72 hrs; type: functional
[7] = tested on: Candida albicans; experiment: Antifungal activity against Candida albicans ATCC 10231 after 48 to 72 hrs; type: functional
[8] = tested on: Micrococcus luteus; experiment: Antibacterial activity against Micrococcus luteus […] after 24 hrs; type: functional
[9] = tested on: Salmonella typhimurium; experiment: Antibacterial activity against Salmonella Typhimurium ATCC 14028 after 24 hrs; type: functional, Salmonella enterica subsp. enterica serovar Typhimurium; conditions: Salmonella enterica, ATCC 14028, 24 h
[10] = tested on: Escherichia coli; experiment: Antibacterial activity against Escherichia coli ATCC 25922 after 24 hrs; type: functional; conditions: ATCC 25922, 24 h

Row | SMILES | MIC [1] [µg/mL] | MIC [2] [µg/mL] | MIC [3] [µg/mL] | MIC [4] [µg/mL] | MIC [5] [µg/mL] | MIC [6] [µg/mL] | MIC [7] [µg/mL] | MIC [8] [µg/mL] | MIC [9] [µg/mL] | MIC [10] [µg/mL]
1 | Oc1cc(Cl)c(Cc2cc(O)c(O)c(Cl)c2Cl)cc1O | 25 (≈ 74.5 µM) | > 100 | 12.5 (≈ 37.3 µM) | > 100 | 25 (≈ 74.5 µM) | 25 (≈ 74.5 µM) | 100 (≈ 298 µM) | 12.5 (≈ 37.3 µM) | 25 (≈ 74.5 µM) | 100 (≈ 298 µM)
2 | Oc1cc(Cc2cc(O)c(O)c(Cl)c2Cl)c(Cl)c(Cl)c1O | 25 (≈ 67.6 µM) | 50 (≈ 135 µM) | 25 (≈ 67.6 µM) | 50 (≈ 135 µM) | 25 (≈ 67.6 µM) | 3.12 (≈ 8.43 µM) | 50 (≈ 135 µM) | 25 (≈ 67.6 µM) | 25 (≈ 67.6 µM) | 50 (≈ 135 µM)
3 | Oc1cc(Cc2cc(O)c(O)c(Br)c2Br)c(Br)c(Br)c1O | 25 (≈ 45.6 µM) | 12.5 (≈ 22.8 µM) | 25 (≈ 45.6 µM) | 12.5 (≈ 22.8 µM) | 25 (≈ 45.6 µM) | 1.56 (≈ 2.85 µM) | 25 (≈ 45.6 µM) | 25 (≈ 45.6 µM) | 25 (≈ 45.6 µM) | 50 (≈ 91.3 µM)
4 | Oc1ccc(Cc2cc(O)c(O)cc2Br)cc1O | > 100 | > 100 | > 100 | > 100 | > 100 | > 100 | > 100 | 100 (≈ 321 µM) | > 100 | > 100
5 | Oc1cc(Cl)c(Cc2cc(O)c(O)cc2Cl)cc1O | 50 (≈ 166 µM) | > 100 | 50 (≈ 166 µM) | > 100 | 50 (≈ 166 µM) | 50 (≈ 166 µM) | > 100 | 25 (≈ 83 µM) | 50 (≈ 166 µM) | > 100
6 | CC1(C)S[C@@H]2[C@H](NC(=O)[C@H](N)c3ccccc3)C(=O)N2[C@H]1C(=O)O [AMPICILLIN] | 1.56 (≈ 4.46 µM) |  | 1.56 (≈ 4.46 µM) |  | 3.12 (≈ 8.93 µM) |  |  | 1.56 (≈ 4.46 µM) | 3.12 (≈ 8.93 µM) | 12.5 (≈ 35.8 µM)
7 | Oc1c(Br)cc(Br)cc1Cc1cc(Br)cc(Br)c1O | 1.56 (≈ 3.02 µM) | > 100 | 1.56 (≈ 3.02 µM) | > 100 | 1.56 (≈ 3.02 µM) | > 100 | > 100 | 1.56 (≈ 3.02 µM) | 3.12 (≈ 6.05 µM) | > 100
8 | C[C@@H]1[C@H](O)[C@@H](C)/C=C/C=C/C=C/C=C/C=C/C=C/C=C/[C@H](O[C@@H]2O[C@H](C)[C@@H](O)[C@H](N)[C@@H]2O)C[C@@H]2O[C@](O)(C[C@@H](O)C[C@@H](O)[C@H](O)CC[C@@H](O)C[C@@H](O)CC(=O)O[C@H]1C)C[C@H](O)[C@H]2C(=O)O [AMPHOTERICIN B] |  | 3.12 (≈ 3.38 µM) |  | 3.12 (≈ 3.38 µM) |  | 3.12 (≈ 3.38 µM) | 6.25 (≈ 6.76 µM) |  |  | 
9 | Oc1ccc(Cc2cc(O)c(O)cc2Cl)cc1O | > 100 | > 100 | > 100 | > 100 | > 100 | > 100 | > 100 | 100 (≈ 375 µM) | > 100 | > 100
10 | Brc1cc2c(cc1Cc1cc3c(cc1Br)OCO3)OCO2 | > 100 | > 100 | > 100 | > 100 | > 100 | > 100 | > 100 | > 100 | > 100 | > 100
11 | Oc1ccc(Cl)cc1Cc1cc(Cl)ccc1O [DICHLOROPHEN] | 12.5 (≈ 46.4 µM) | 50 (≈ 186 µM) | 12.5 (≈ 46.4 µM) | 50 (≈ 186 µM) | 12.5 (≈ 46.4 µM) | 12.5 (≈ 46.4 µM) | 25 (≈ 92.9 µM) | 12.5 (≈ 46.4 µM) | 6.25 (≈ 23.2 µM) | 100 (≈ 372 µM)
12 | Oc1c(Cl)cc(Cl)cc1Cc1cc(Cl)cc(Cl)c1O | 1.56 (≈ 4.62 µM) | > 100 | 0.78 (≈ 2.31 µM) | > 100 | 0.78 (≈ 2.31 µM) | 12.5 (≈ 37 µM) | 100 (≈ 296 µM) | 0.78 (≈ 2.31 µM) | 3.12 (≈ 9.23 µM) | > 100
13 | Oc1cc(Cc2c(Br)c(O)c(O)c(Br)c2Br)c(Br)c(Br)c1O | 25 (≈ 39.9 µM) | 1.56 (≈ 2.49 µM) | 25 (≈ 39.9 µM) | 3.12 (≈ 4.98 µM) | 12.5 (≈ 19.9 µM) | 1.56 (≈ 2.49 µM) | 6.25 (≈ 9.97 µM) | 25 (≈ 39.9 µM) | 25 (≈ 39.9 µM) | 50 (≈ 79.8 µM)
14 | Oc1cc(Br)c(Cc2cc(O)c(O)cc2Br)cc1O | 25 (≈ 64.1 µM) | > 100 | 25 (≈ 64.1 µM) | > 100 | 25 (≈ 64.1 µM) | 50 (≈ 128 µM) | > 100 | 12.5 (≈ 32 µM) | 25 (≈ 64.1 µM) | > 100
15 | Oc1ccccc1Cc1cc(Cl)ccc1O | 25 (≈ 107 µM) | 50 (≈ 213 µM) | 25 (≈ 107 µM) | 50 (≈ 213 µM) | 25 (≈ 107 µM) | 6.25 (≈ 26.6 µM) | 50 (≈ 213 µM) | 25 (≈ 107 µM) | 25 (≈ 107 µM) | 50 (≈ 213 µM)
16 | Oc1ccccc1Cc1cccc(Cl)c1O | 100 (≈ 426 µM) | 100 (≈ 426 µM) | 50 (≈ 213 µM) | 100 (≈ 426 µM) | 100 (≈ 426 µM) | 12.5 (≈ 53.3 µM) | 50 (≈ 213 µM) | 50 (≈ 213 µM) | 100 (≈ 426 µM) | 100 (≈ 426 µM)
